In paper PMC9077138, “An investigation on 3-acetyl-7-methoxy-coumarin Schiff bases and their Ru(II) metallates with potent antiproliferative activity and enhanced LDH and NO release” (RSC Advances, 2018):

How the values were obtained:
CT-DNA = experiment: UV-Vis absorption titration with CT-DNA; parameters: species or system calf; details: intrinsic binding constant, Tris–HCl buffer pH 7.2
Text: DNA-binding studies are important for the rational design and construction of new and more efficient drugs targeted to DNA.[42] The binding affinity of the ligands and their organoruthenium(II) complexes with CT-DNA can be measured by using UV-Vis spectroscopy. The UV-Vis absorption spectra of the free ligands and their complexes in the absence and presence of CT DNA are given in Fig. S25 ^† and 7. […] The decrease in absorbance with increase in concentration of CT-DNA may be due to the decrease in transition probabilities as a result of partial transfer of electrons from the π orbital of the DNA base pairs to the coupled π* orbital of the coordinated Schiff base to metal due to overlapping.[43] The extent of hypochromism in the charge transfer band is an indication of the strength of intercalative interaction.[43]
In order to compare the DNA-binding affinities of the ligands and their metal complexes quantitatively, their intrinsic binding constants Kbin were obtained according to eqn (S1). ^† The binding constant value was calculated from the plot of [DNA]/(εa − εf) versus [DNA] and the data were given in Table 3 (Fig. 8). […] This may be due to the presence of different substituents in the terminal nitrogen atom of the ligands.
Supplementary Information
All the experiments involving CT-DNA binding were carried out in deionised water with tris(hydroxymethyl)-aminomethane (Tris, 5 mM) and sodium chloride (50 mM) and adjusted to pH 7.2 with hydrochloric acid at room temperature. The concentration of CT-DNA was determined by UV absorbance at 260 nm. Solutions of CT-DNA in Tris-HCl buffer gave a ratio of UV absorbance at 260 and 280 nm, A260/A280, of approximately 1.9, […]
The molar absorption coefficient, ε260, was taken as 6600 M−1 cm−1.Various concentrations of CT-DNA (2-2.5 µM) was added to the complexes (25 µM dissolved in DMSO/Tris-HCl buffer, 1 % DMSO in the final solution). While measuring the absorption spectra, an equal amount of DNA was added to both the test and reference solutions to eliminate the absorbance of DNA itself. Control experiments with DMSO were performed and no change in the spectra of CT-DNA was observed. Absorption spectra were recorded after equilibrium at 20 °C for 10 min. The intrinsic binding constant K b was determined by using following equation(1) [DNA]/[εa-εf]) = [DNA]/[ε b-εf]+1/Kb[εb-εf] (S1)
The absorption coefficients εa, εf and εb correspond to Aobsd/[DNA], the extinction coefficient for the free compound and for the compound in the fully bound form respectively. The slope and the intercept of the linear fit of the plot of [DNA]/[εa −εf] versus [DNA] give […] and 1/Kb[εb−εf] respectively. The intrinsic binding constant Kb can be obtained from the ratio of the slope to the intercept. […]

BSA = molecular target: T1, BSA (Bos taurus, UniProt P02769); experiment: Three-dimensional fluorescence spectra of BSA; assay type: binding, bovine; details: BSA 10 μM + compound 10 μM, pH 7.4, 298 K
T1 construct: purchased HiMedia (Mumbai, India)
T1 sequence (P02769 25-607): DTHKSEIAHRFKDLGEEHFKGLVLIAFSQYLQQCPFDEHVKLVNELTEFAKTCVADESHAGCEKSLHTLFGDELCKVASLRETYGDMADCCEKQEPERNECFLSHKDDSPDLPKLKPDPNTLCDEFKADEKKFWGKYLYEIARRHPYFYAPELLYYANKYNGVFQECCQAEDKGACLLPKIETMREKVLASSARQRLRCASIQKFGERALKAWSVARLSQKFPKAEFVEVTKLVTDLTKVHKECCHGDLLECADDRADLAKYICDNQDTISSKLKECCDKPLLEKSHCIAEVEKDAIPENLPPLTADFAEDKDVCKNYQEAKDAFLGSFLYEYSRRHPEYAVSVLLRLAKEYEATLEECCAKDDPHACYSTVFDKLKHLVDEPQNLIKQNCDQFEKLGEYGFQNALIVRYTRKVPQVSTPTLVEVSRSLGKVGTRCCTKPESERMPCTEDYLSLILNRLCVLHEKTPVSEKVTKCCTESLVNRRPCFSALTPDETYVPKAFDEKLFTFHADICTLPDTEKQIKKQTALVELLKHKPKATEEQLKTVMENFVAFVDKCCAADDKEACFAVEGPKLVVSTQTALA
Text: (§1) To investigate the micro environmental changes in BSA/HSA during interaction with the compounds, three dimensional fluorescence spectroscopic studies have been performed. The changes observed in 3D emission spectra and contour lines of serum albumins in the absence and presence of ligands and complexes are given in Fig. 15, 16, S34 and S35 in the ESI ^† and their corresponding characteristic parameters are provided in Table 5. The emission spectra of serum albumins such as BSA and HSA have shown three characteristic peaks – peaks A and C corresponds to first and second order Rayleigh scattering and peak B corresponds to the spectral characteristics of Trp and Tyr residues of proteins.[57] The emission intensity of Rayleigh first order scattering peak increased upon adding the compounds to serum albumins. […] The fluorescence intensity of peak ‘B’ corresponding to the tryptophan and tyrosine residues decreased with slight blue shift. From the results, it is inferred that the molecular microenvironment and conformational changes of protein occurred after interaction with the complexes and ligands.
Fig. 15 Three-dimensional fluorescence spectra of BSA in the absence and presence of ruthenium(II) complexes 1–4 (pH 7.4, 298 K, [BSA] = 10 μM, [complex] = 10 μM).
Fig. S34. Three-dimensional fluorescence spectra of BSA in the absence and presence of
(§2) ligands H 2L1-4 (pH 7.4, 298 K, [HSA] =10 µM, [Ligand] =10 µM) […]

HSA = molecular target: T2, HSA (Homo sapiens, UniProt P02768); experiment: Three-dimensional fluorescence spectra of HSA; assay type: binding; details: HSA 10 μM + compound 10 μM, pH 7.4, 298 K
T2 construct: purchased HiMedia (Mumbai, India)
T2 sequence (P02768 25-609): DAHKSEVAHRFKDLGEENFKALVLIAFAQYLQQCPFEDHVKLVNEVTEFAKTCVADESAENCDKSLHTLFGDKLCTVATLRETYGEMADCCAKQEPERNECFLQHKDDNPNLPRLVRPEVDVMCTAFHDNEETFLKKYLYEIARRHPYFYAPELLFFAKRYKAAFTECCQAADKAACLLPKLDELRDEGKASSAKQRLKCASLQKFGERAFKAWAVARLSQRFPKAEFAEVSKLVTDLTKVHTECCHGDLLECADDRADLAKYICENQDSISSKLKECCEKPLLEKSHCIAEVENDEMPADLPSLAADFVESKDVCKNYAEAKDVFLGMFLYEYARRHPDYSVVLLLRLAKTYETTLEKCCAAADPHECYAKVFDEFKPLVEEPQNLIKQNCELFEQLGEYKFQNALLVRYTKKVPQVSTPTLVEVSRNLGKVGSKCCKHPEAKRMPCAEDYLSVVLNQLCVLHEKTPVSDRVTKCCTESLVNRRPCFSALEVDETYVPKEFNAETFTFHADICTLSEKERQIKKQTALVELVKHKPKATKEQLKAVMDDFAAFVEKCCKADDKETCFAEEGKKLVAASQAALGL
Text: as §1
Fig. 16 Three-dimensional fluorescence spectra of HSA in the absence and presence of ruthenium(II) complexes 1–4 (pH 7.4, 298 K, [HSA] = 10 μM, [complex] = 10 μM).
Fig. S35. Three-dimensional fluorescence spectra of HSA in the absence and presence of
as §2

[1] = Total antioxidant capacity, phosphomolybdate method
Protocol: It has been reported that free radical species such as reactive oxygen species (ROS), are involved in the pathogenesis of various diseases through effects on DNA directly and by acting as a tumour promoter.[59,60] The DPPH free radical scavenging activity of the ligands and complexes were studied and quantitatively antioxidant properties were determined by using phosphomolybdate method. We knew that the inhibitory effects of the tested compounds on DPPH radical are concentration dependent and the suppression ratio increases with increasing sample concentrations (Fig. S36 ^†). […] In the phosphomolybdenum assay, the antioxidant activity is expressed as the number of equivalents of ascorbic acid (Table 6). The total antioxidant activity of the compounds is in the following order complex 3 > complex 2 > complex 1 > complex 4 > H2L^3 > H2L^2 > H2L^1 > H2L^4 > ascorbic acid > [RuHClCO(PPh3)3]. The results concluded that the metal complexes are better antioxidants than their parent ligands which may be due to the chelation of the ligands to metal ion.[35] The radical scavenging ability of the new complexes is greater than that of few other reported ruthenium complexes, containing Schiff base ligands.[9]
The DPPH radical scavenging activity of the compounds have been carried out according to the reported method.[74] In this study, various concentrations of the experimental standard ascorbic acid, [RuHCl(CO)(PPh3)3], ligands (20–100 μM) and complexes (2–10 μM) in methanol were taken. Total antioxidant activity of the compounds was determined by the phosphomolybdate method.[75]

Row | Compound | Binding constant Kbin (CT-DNA) | Fluorescence peaks Intensity (F) (BSA) | Fluorescence peaks Peak position λex/λem (BSA) | Fluorescence peaks Stokes Δλ (BSA) [nm] | Rayleigh scattering peaks Intensity (F) (BSA) | Fluorescence peaks Intensity (F) (HSA) | Fluorescence peaks Peak position λex/λem (HSA) | Fluorescence peaks Stokes Δλ (HSA) [nm] | Rayleigh scattering peaks Intensity (F) (HSA) | Total antioxidant capacity [1] | melting point [°C]
1 | COc1ccc2[c]3c(c(=O)oc2c1)C(C)=[N+]1N=C(N)[S][Ru-4]31([C]#[O+])([P+](c1ccccc1)(c1ccccc1)c1ccccc1)[P+](c1ccccc1)(c1ccccc1)c1ccccc1 [Complex 1, [Ru(7MAC-tsc)(CO)(PPh3)2]] | 1.2544 ± 0.304 × 10^6 M^−1 | 395.56 | 280/338 | 58 | 867.32 | 268.14 | 280/335 | 55 | 652.04 | 54.13 ± 0.28 μg ascorbic acid equivalents/ml | –
2 | CNC1=N[N+]2=C(C)c3[c](c4ccc(OC)cc4oc3=O)[Ru-4]2([C]#[O+])([P+](c2ccccc2)(c2ccccc2)c2ccccc2)([P+](c2ccccc2)(c2ccccc2)c2ccccc2)[S]1 [Complex 2, [Ru(7MAC-mtsc)(CO)(PPh3)2]] | 1.3958 ± 0.320 × 10^6 M^−1 | 372.76 | 280/339 | 59 | 837.83 | 269.53 | 280/331 | 51 | 790.59 | 58.27 ± 0.46 μg ascorbic acid equivalents/ml | –
3 | CCNC1=N[N+]2=C(C)c3[c](c4ccc(OC)cc4oc3=O)[Ru-4]2([C]#[O+])([P+](c2ccccc2)(c2ccccc2)c2ccccc2)([P+](c2ccccc2)(c2ccccc2)c2ccccc2)[S]1 [Complex 3, [Ru(7MAC-etsc)(CO)(PPh3)2]] | 1.4428 ± 0.279 × 10^6 M^−1 | 304.43 | 280/339 | 59 | 958.23 | 266.21 | 280/337 | 57 | 612.58 | 62.71 ± 0.37 μg ascorbic acid equivalents/ml | –
4 | COc1ccc2[c]3c(c(=O)oc2c1)C(C)=[N+]1N=C(Nc2ccccc2)[S][Ru-4]31([C]#[O+])([P+](c1ccccc1)(c1ccccc1)c1ccccc1)[P+](c1ccccc1)(c1ccccc1)c1ccccc1 [Complex 4, [Ru(7MAC-ptsc)(CO)(PPh3)2]] | 1.0636 ± 0.334 × 10^6 M^−1 | 368.76 | 280/340 | 60 | 741.59 | 276.12 | 280/332 | 52 | 830.46 | 54.99 ± 0.65 μg ascorbic acid equivalents/ml | –
5 | COc1ccc2cc(C(C)=NNC(N)=S)c(=O)oc2c1 [H2L^1, ((1E)-1-(1-(7-methoxy-2-oxo-2H-chromen-3-yl)ethylidene)thiosemicarbazone)] | – | – | – | – | – | – | – | – | – | – | 213
6 | CNC(=S)NN=C(C)c1cc2ccc(OC)cc2oc1=O [H2L^2, ((1E)-1-(1-(7-methoxy-2-oxo-2H-chromen-3-yl)ethylidene) 4(N)-methylthiosemicarbazone)] | – | – | – | – | – | – | – | – | – | – | 117
7 | CCNC(=S)NN=C(C)c1cc2ccc(OC)cc2oc1=O [H2L^3, ((1E)-1-(1-(7-methoxy-2-oxo-2H-chromen-3-yl)ethylidene) 4(N)-ethylthiosemicarbazone)] | – | – | – | – | – | – | – | – | – | – | 174
8 | COc1ccc2cc(/C(C)=N\NC(=S)Nc3ccccc3)c(=O)oc2c1 [H2L^4, ((1E)-1-(1-(7-methoxy-2-oxo-2H-chromen-3-yl)ethylidene) 4(N)-phenylthiosemicarbazone)] | – | – | – | – | – | – | – | – | – | – | 186
